Results from patent US11684660B2, “Human PD1 peptide vaccines and uses thereof” (OHIO STATE INNOVATION FOUNDATION, priority 2017, dated 2023).
No end group written: not given here.

Columns and labels:
[1] = biological target: T1, extracellular domain of human PD-L1 (hPD-L1) (Homo sapiens, UniProt Q9NZQ7); assay: BIACORE SPR binding to immobilized rhPD-L1; conditions: 1 μM peptide
T1 construct: Recombinant hPD-L1 ectodomain was immobilized onto the gold surface of a CM5 sensor chip
Procedure: To test the activity of all the selected peptides, surface plasmon resonance (SPR) spectroscopy (BIACORE™ T200, at […]) was used to measure their binding affinities to the extracellular domain of human PD-L1 (hPD-L1). Recombinant hPD-L1 ectodomain was immobilized onto the gold surface of a CM5 sensor chip by direct amine coupling.
(§1) 1 μM BSA was used as the negative control. The chip was regenerated by 10 mM Glycine-HCl, pH 2.5(FIG. 3E).
(§2) 1 μM of various PD-1 peptides were injected over the chip for 1 min at 10 μl/min followed by 1 min dissociation and then 1 min regeneration with 10 mM Glycine-HCl, pH 2.5 for each run.

Nivolumab = assay: BIACORE SPR binding to immobilized Nivolumab; conditions: 1 μM peptide
Procedure: as §1, §2

[2] = test system: tumor infiltrating lymphocytes; assay: Analysis of tumor infiltrating lymphocytes from peptide-vaccinated mice; assay type: in vivo, Balb/c mice
Procedure: CD4 (20A) and CD8 (20B) T cells were determined by flow cytometry (gated on CD45+ cells). Foxp3+CD25+CD4 Tregs ([…]) were determined by intracellular staining (gated on CD45+CD4+ cells). […] Group means were calculated and compared with Anova
FIGS. 21A and 21B show Analysis of tumor infiltrating lymphocytes from peptide-vaccinated mice. […] Tumor infiltrating cells were isolated from combined tumor tissue from […] (group A to F) of treated mice in first in vivo experiment. Tumor infiltrating cells were isolated from each mouse in group 5 and 6 from second in vivo experiment. CD4 and CD8 cells were determined by flow cytometry (gated on CD45+ infiltrating cells). FoxP3 expression on CD25+CD4+ T cells were determined by intracellular staining (gated on CD45+CD4+ cells). […] CD4 and CD8 cells were determined by flow cytometry (gated on CD45+ infiltrating cells). FoxP3 expression on CD25+CD4+ T cells were determined by intracellular staining (gated on CD45+CD4+ cells). Group means were calculated and compared with Anova. Error bars denote s.e.m.
On the other hand, high numbers of T cells at the tumor site, especially CD8 T cells, is a key denominator for overall survival (OS) in cancer patients. […] Therefore, it was determined CD8/Treg ratio in TIC in tumor-bearing mice vaccinated with combination peptides or control peptide (described above). […] The cells were then incubated with mAbs to the cell-surface markers (CD45, CD4, CD8, CD25 Then the cells were fixed and permeabilized using Cytofix/Cytoperm solution (ebioscience) for 60 min at 4° C., followed by staining for FoxP3 for 30 min at 4° C. 80,000-100,000 live cell events were acquired on a FACSCantoII (BD) and analyzed using FlowJo software (Tree Star, Inc.). To differentiate TILs from tumor cells, the cells were first gated on CD45^+ cells. Then the CD4^+ (FIG. 20A) and CD8^+ (FIG. 20B) cells were analyzed. Tregs were represented by CD4^+CD25^+FoxP3^+ cells (FIG. 20C). GraphPad software (GraphPad Prism Software, Inc., San Diego, Calif., USA) was utilized for statistical analysis. Group means were calculated and compared with Anova. […]

T1 sequence (Q9NZQ7 19-238 limits assumed): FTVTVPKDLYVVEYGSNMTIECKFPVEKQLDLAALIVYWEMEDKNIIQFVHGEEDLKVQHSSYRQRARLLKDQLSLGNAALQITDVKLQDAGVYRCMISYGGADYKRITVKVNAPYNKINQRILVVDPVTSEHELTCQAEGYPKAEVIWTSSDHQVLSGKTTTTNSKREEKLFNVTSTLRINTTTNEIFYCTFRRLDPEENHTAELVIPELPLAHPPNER

## KLLSLIKGVIVHRLEGVE-GPSL-GAISLAPKAQIKESLRAEL-CONH2 (KLLSLIKGVIVHRLEGVEGPSLGAISLAPKAQIKESLRAEL-NH2) [MVF-PD-1 (92-110)]
[1]
  binding to immobilized rhPD-L1 (in words): bind
[1]; 1 min at 10 μl/min
  SPR response of peptide binding to immobilized rhPD-L1: around 110 RU
Nivolumab
  binding to immobilized Nivolumab (in words): bind
Nivolumab; 1 min at 10 μl/min
  SPR response of peptide binding to immobilized Nivolumab: 970 RU
[2]; Anova
  CD4 T cells or Treg cells in TILs, differences among groups: no significant differences
[2]; gated on CD45+ cells, Anova
  CD8+ T cells in TILs compared to control peptide-vaccinated group: significantly higher
[2]; mouse, in vivo
  CD8/Treg ratio in TILs compared to control peptide-vaccinated group: increased
